Experimental data as given in paper PMC4682813, “The Aminosteroid Derivative RM-133 Shows In Vitro and In Vivo Antitumor Activity in Human Ovarian and Pancreatic Cancers” (PLoS ONE, 2015).

Assays:
[1] = test system: PANC-1 tumors xenografted in nu/nu nude mice; experiment: PANC-1 xenografts in nude mice; type: in vivo; details: aqueous 0.4% methylcellulose:EtOH (92:8), 240 mg/kg s.c. twice a day every other day
From the text: All in vivo experiments were approved by our Institutional Animal Care and Use Committee (Comités de protection des animaux de l’Université Laval) and carried out according to the guidelines of the Canadian Council on Animal Care. For xenografts, homozygous ♀ nu/nu nude mice (24–42 days old) were purchased from Charles River Inc. (Saint-Constant, QC, Canada) and housed (four to five) in vinyl micro-isolated ventilated cages, equipped with air lids, which were kept in laminar airflow hoods and maintained under pathogen-limiting conditions. During the acclimatization and study period, the animals were housed under a controlled environment at 22 ± 3°C, with 50 ± 20% relative humidity and light set at 12 h/day (light on at 07:15). Rodent food (Rodent diet #T.2018.15, Harlan Teklad, Madison, WI) and water were provided ad libitum. For nu/nu nude mice, food and water were sterilized prior to dispensing to the animals. Standard Balb/c mice were used for pharmacokinetic studies. Animals were anesthetized with isoflurane and killed by cervical dislocation.
Twenty female nu/nu nude mice (22–24 g) were inoculated with 5×10^6 PANC-1 cells per flank, in 30% matrigel-containing culture medium (0.1 mL). Ten days after inoculation, tumor-bearing mice were randomized in 2 groups of 10 mice each. […] Mice in the second (control) group (n = 18 tumors) received the vehicle only. As with previous xenografts, the tumor area was measured and mouse body weight monitored.

[2] = Solubility of RM-133 in injection vehicles; type: physicochemical; details: vehicle #5 sunflower oil:tetrahydrofuran (92:8)
From the text: (§1) Eleven different vehicles were investigated by s.c. injection. These vehicles were formulated as follows: vehicle #1 [propylene glycol:EtOH (92:8)]; vehicle #2 [aqueous 0.4% methylcellulose:EtOH (92:8)]; vehicle #3 [castor oil:EtOH:benzyl alcohol:benzyl benzoate (65:10:10:15)]; vehicle #4 [sunflower oil:EtOH (92:8)]; vehicle #5 [sunflower oil:tetrahydrofuran (92:8)]; vehicle #6 [aqueous 25% β-cyclodextrin:EtOH (92:8)]; vehicle #7 [sesame oil:EtOH:benzyl benzoate:benzyl alcohol:Tween 80 (89.8:7.8:1:1:0.5)]; vehicle #8 [soya oil:EtOH (92:8)]; vehicle #9 [RPMI medium:EtOH (92:8)]; vehicle #10 [saline:dimethyl sulfoxide (DMSO):Tween 80 (89.5:10:0.5)]; and vehicle #11 [saline:benzyl alcohol:carboxymethylcellulose:Tween 80 (98.2:0.9:0.5:0.4)]. The eight vehicles producing the best RM-133 solubility (#1–8) were injected s.c. (0.1 mL) without the test compound (RM-133) for tolerance and behavioral evaluation studies, by observing mice at 0.25, 1, 3, 7, 23, 26, 28, 30, and 96 h post-injection. Finally, RM-133 was injected s.c. once at 120 mg/kg/0.1 mL of the best […] tolerated vehicles (#1,2,4–7) into ♀ Balb/c mice (4 per group), and mice were next monitored with blood collection by cardiac puncture after 3 and 12 h. The plasma concentration of RM-133 was then determined by LC-MS/MS as above.

OVCAR-3 cells = experiment: MTS cell proliferation (viability) assay, OVCAR-3; type: cell-based; details: Homo sapiens, 72 h incubation
Description: Human ovarian (OVCAR-3) and pancreatic (PANC-1) cancer cells were purchased from the American Type Culture Collection (ATCC, Rockville, MD) and maintained in exponential growth in a 5% CO2 humidified atmosphere at 37°C. OVCAR-3 cells were routinely grown in RPMI-1640 medium (Sigma, St. Louis, MO) supplemented with 20% FBS, L-glutamine (2 mM), antibiotics (100 IU penicillin/mL and 100 μg streptomycin/mL), insulin (50 ng/mL), and estradiol (1 nM). For OVCAR-3 cell proliferation assays, the medium used was identical, except for the omission of estradiol. […]
The cell proliferation assay was performed with a colorimetric method using 3-(4,5-dimethylthiazol-2-yl)-5-(3-carboxymethoxyphenyl)2-(4-sulfophenyl)-2H-tetrazolium (MTS) (Cell Titer 96 Aqueous, Promega, Madison, WI). […] MTS is converted to water-soluble colored formazan by dehydrogenases present in metabolically active cells, and therefore, the MTS assay allows the immediate determination of absorbance of the soluble formazan directly in the cell medium and thus the measurement of viable cells. The A 490 of the medium was determined using a 96-well microplate reader INFINITE 200 PRO series (TECAN, Männedorf, Switzerland). The IC50 value of RM-133 was determined for each of the two cell lines using the GraphPad Prism 7 software (GraphPad Software, Inc., San Diego, CA).

[3] = Plasma concentration of RM-133 with different vehicles; type: in vivo, Balb/c mice; details: female, Balb/c, mouse, sc, 120 mg/kg, single s.c. 120 mg/kg in 0.1 mL
From the text: as §1

[4] = Plasma concentration of RM-133 in mice at different injection doses; type: in vivo, Balb/c mice
Description: Eight ♀ Balb/c mice weighing approximately 20 g were separated in 4 groups. Mice in each group received a single s.c. injection of RM-133 (30, 60, 120, or 480 mg/kg). The vehicle used was propylene glycol:EtOH (92:8) and injection volume was 0.1 mL for all concentrations except at 480 mg/kg, where 0.2 mL was used. Blood was collected by cardiac puncture after 12 h, and the plasma concentration of RM-133 determined by LC-MS/MS as above.

CYP3A4 = test system: CYP3A4; set-up: method as in PMID 25300820; details: low to moderate risk of drug-drug interactions; cited from earlier work
[5] = vehicle #1 propylene glycol (92%) EtOH (8%)
[6] = vehicle #2 aqueous 0.4% methylcellulose (92%) EtOH (8%)
[7] = vehicle #4 sunflower oil (92%) EtOH (8%)
[8] = vehicle #5 sunflower oil (92%) tetrahydrofuran (8%)
[9] = vehicle #6 aqueous 25% β-cyclodextrin (92%) EtOH (8%)

C#C[C@]1(O)CC[C@H]2[C@@H]3CC[C@H]4C[C@H](O)[C@@H](N5CCN(C(=O)[C@@H]6CCCN6C(=O)c6ccc7ccccc7n6)CC5)C[C@]4(C)[C@H]3CC[C@@]21C [RM-133]
apparent toxicity during the experimental period or at necropsy [1]: no apparent toxicity | body weight [1]: not affected | reduction of PANC-1 tumor size progression ([1]; day 22): 75% | reduction of PANC-1 tumor progression ([1]; end of treatment (40 days)): 63% | solubility in vehicle [2]: poorly soluble | IC50 (OVCAR-3 cells): 800 nM | concentration at 3 h [3, 5]: 314 ± 2 ng/mL | concentration at 12 h [3, 5]: 189 ± 5 ng/mL | concentration at 3 h [3, 6]: 449 ± 5 ng/mL | concentration at 12 h [3, 6]: 171 ± 10 ng/mL | concentration at 3 h [3, 7]: 285 ± 5 ng/mL | concentration at 12 h [3, 7]: 173 ± 6 ng/mL | concentration at 3 h [3, 8]: 642 ± 20 ng/mL | concentration at 12 h [3, 8]: 374 ± 9 ng/mL | concentration at 3 h [3, 9]: 2960 ± 121 ng/mL | concentration at 12 h [3, 9]: 1780 ± 47 ng/mL | tolerance ([4]; 480 mg/kg s.c. in 0.2 mL propylene glycol:EtOH (92:8), motion discomfort, same with vehicle alone): not tolerated | plasma concentration as percentage of the injected amount ([4]; 12 h after single s.c. 30 mg/kg, propylene glycol:EtOH (92:8)): 17% | concentration at 12 h ([4]; female, mouse, plasma, sc, 12 h after single s.c. 30 mg/kg, propylene glycol:EtOH (92:8), Balb/c mice): 167 ng/mL | inhibition of CYP3A4 (CYP3A4): weak inhibition
